Data taken from patent publication US8252748B2, “Peptide derived from neurotensin receptor 3 and use thereof in the treatment of psychiatric diseases” (Centre National de la Recherche Scientifique—CNRS, priority 2007, dated 2012).

Legend:
TREK-1 channel = biological target: T1, TREK-1 channel (Homo sapiens, UniProt O95069); experiment: Whole-cell patch clamp of TREK-1 channel activity in transfected COS-7 cells; type: cell-based; details: activation by 10 μM arachidonic acid alone (baseline 31 pA/pF)
T1 construct: expressed in transfected cells; host or cells: COS-7 cells (ATCC CRL-1651), DEAE-dextran transfection
T1 sequence (O95069 1-426): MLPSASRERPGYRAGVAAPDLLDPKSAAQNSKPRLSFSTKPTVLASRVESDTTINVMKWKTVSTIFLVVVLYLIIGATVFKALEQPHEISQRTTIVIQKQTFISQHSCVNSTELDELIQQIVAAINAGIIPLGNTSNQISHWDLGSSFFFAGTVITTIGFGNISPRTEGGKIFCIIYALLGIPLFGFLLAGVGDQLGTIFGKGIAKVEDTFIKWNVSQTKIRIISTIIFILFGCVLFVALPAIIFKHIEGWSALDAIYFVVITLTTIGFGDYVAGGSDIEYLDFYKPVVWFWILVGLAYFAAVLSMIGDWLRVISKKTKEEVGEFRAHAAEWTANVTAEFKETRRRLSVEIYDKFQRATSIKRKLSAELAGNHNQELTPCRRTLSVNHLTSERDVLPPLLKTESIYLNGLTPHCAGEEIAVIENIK
Description: All the experiments for measuring the effect of the propeptide were conducted on COS-7 cells (cell line derived from kidney fibroblasts of African green monkey Cercopithecus aethiops). These cells are sown at a density of 20 000 cells/dish with diameter of 35 mm, 24 hours before being transfected by the DEAE-dextran method with 1 μg of pIRES-EGFP-TREK-1 plasmid. Measurements of current were taken 48 to 72 hours after transfection.
Culture of the COS-7 cells. The COS-7 cells (ATCC reference: CRL-1651) are cultivated in DMEM medium (Gibco)/10% fetal calf serum (FCS, ICN), at 37° C. in the presence of 5% CO2.
Transfection using DEAE dextran. On day 1, the COS-7 cells are sown at 20 000 cells per 35-mm diameter dish containing 2 ml of culture medium. On day 2, the medium is removed and the cells are covered with 200 μl of PBS (Gibco) containing 1 μg of pIRES-EGFP-TREK-1 plasmid and 100 μg of DEAE-dextran (Sigma) then placed at 37° C./5% CO2. After incubation for 30 minutes, 2 ml of medium DMEM/10% NuSerum/80 μM chloroquin is added. After 3 hours, the medium is replaced with 2 ml of DMEM/10% FCS and the cells are incubated for 48 to 72 hours before being measured by electrophysiological methods.
Electrophysiological measurements: all the measurements are taken at room temperature, i.e. at 21-22° C. The cells that were transfected by the plasmid are detected from the fluorescence emitted by the EGFP after excitation at 480 nm.
The whole-cell patch clamp technique was used for measuring the activity of the TREK-1 channels. The equipment used is the RK 400 patch-clamp amplifier (Axon Instruments, U.S.A.). The patch pipettes with resistance of 1.3 to 8 MΩ are prepared from capillaries of borosilicate glass and are filled with a solution of 155 mM KCl, 3 mM MgCl2, 5 mM EGTA, 10 mM HEPES/KOH pH 7.2.
The cell culture medium is replaced with a solution of 150 mM NaCl, 5 mM KCl, 3 mM MgCl2, 1 mM CaCl2, 10 HEPES/NaOH pH 7.4 containing 10 mM tetraethyl ammonium chloride, 3 mM of 4-aminopyridin. The cells are perfused continuously with this solution. The rest potential of the membrane of the measured cell is fixed at −80 mV.
The variations in voltage are obtained either with a continuous ramp (from −100 to +50 mV) or by potential jumps of 10 mV (from −100 to +40 mV, 1.5 second per jump).
The data obtained were analyzed with the Pclamp software. The currents described in the appended FIG. 2B were obtained at 0 mV, the results expressed are the mean values±standard deviation. The IC50 value was obtained by plotting the experimental data with a sigmoidal function.
The activity of the channel is then measured by the patch-clamp technique in whole-cell configuration as described above.

mouse (C57Black/J) = experiment: Conditioned motility suppression test (CMST); type: in vivo; details: fluoxetine 3 mg/kg; 30 min after injection
From the text: The inventors conducted three types of behavioral experiments that are regarded as classical for determining the antidepressant activity of a substance (Nestler E. J., Gould E., Manji H., Buncan M., Duman R. S., Greshenfeld H. K., Hen, R. et al. “Preclinical models: status of basic research in depression” Biol Psychiatry. 15, 503-528 (2002) (20) and Cryan, J. & Holmes, A. “The ascent of mouse: advances in modeling human depression and anxiety” Nat Rev Drug Discov. 4, 775-790 (2005) (21)). The effects of the propeptide of the present invention were compared with those of the saline solution in which it is dissolved and with those of fluoxetine, one of the most-used antidepressants in clinical practice. The mouse strain used is C57Black/J strain. TREK-1^−/− mice were also measured in these various tests.
In the next two tests, the propeptide of the present invention was administered by the IV route at a rate of 100 μl at 1 μM per animal.
C. Conditioned Motility Suppression Test (CMST) (see Daugé, V., Sebret, A., Beslot, F., Matsui, T., & Rogues B. “Behavioral profile of CCK2 receptor-deficient mice” Neuropsychopharmacol; 25: 690-698 (2001) (23).
The experiment consists of conditioning the mouse on day 1, and measuring the effects of the substances on day 2.
On day 1, each mouse is placed in a box where the floor is a metal grille connected to an electric stimulator. […]

[1] = test system: hippocampus progenitor cells; experiment: Neurogenesis (BrdU-positive cells) after 4 days of treatment; type: in vivo, mouse; details: fluoxetine 3 mg/kg
From the text: In contrast to many antidepressants now commonly used, the efficacy of action of the peptide of the invention is very rapid. […] 93: 3908-3913 (1996) (28) and with a considerable decrease in neurogenesis in the dentate gyrus (Gould, E., Tanapat, P., McEwen, B. S., Flugge, G., Fuchs, E. “Proliferation of granule cell precursors in the dentate gyrus of adult monkeys is diminished by stress” Proc Natl Acad Sci USA, 95: 3168-3171 (1998)) (29).
The experimental protocol is that described in the material and methods (Supplement) of the work of Santarelli et al., “Requirement of hippocampal neurogenesis for the behavioral effects of antidepressants” Science, 301: 805-809 (2003) (24) apart from the duration of treatment, which is four days.
The increase was evaluated using the one-factor ANOVA test followed by the post-hoc test.

| current density at 0 mV (TREK-1 channel) [pA/pF] | Compound | motility relative to untreated shocked mice (mouse (C57Black/J)) [times greater] | neurogenesis relative to physiological saline [1] |
| --- | --- | --- | --- |
| 130 | CCCCC/C=C\C/C=C\C/C=C\C/C=C\CCCC(=O)O [arachidonic acid, reference compound] |  |  |
|  | CNCCC(Oc1ccc(C(F)(F)F)cc1)c1ccccc1 (stereo not drawn) [fluoxetine, reference compound] | 5 | identical to that induced by the injection of physiological saline solution |
